The results in this text go back to patent publication US20260240869A1, “ANTIPSEUDOMONAL FUSIDIC ACID COMPOUNDS” (priority 2022, published 2026).

Values after ≈ are worked out from the molar mass of the structure shown. Where two headings read alike, the source gives them in different places.

Assay [1] deals with P. aeruginosa PAO1. Briefly: MIC, CLSI broth microdilution, P. aeruginosa PAO1. It is filed as cell-based, Pseudomonas aeruginosa. The conditions noted are these: for MIC P. aeruginosa PAO1, CAMH: CAMH (Table 10); for shift in MIC on co-treatment with 5 mM MgCl2: P. aeruginosa PAO1; for MIC: Pseudomonas aeruginosa; for MIC P. aeruginosa PAO1, 5 mM MgCl2/CAMH: co-treatment 5 mM MgCl2 in CAMH (Table 10). The gist of the method: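 Growth medium was cation-adjusted Mueller-Hinton or Lennox LB broth. MICs came from CLSI-style broth microdilution done in three biological replicates.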
On the technique in general: Broth dilution looks for growth in wells or tubes with falling amounts of substance.

The test system of another assay is E. coli MG1655. Briefly: LC-MS/MS whole-cell accumulation assay, E. coli MG1655. The settings on record: E. coli MG1655; accumulation of FA reported (Table 8). The format is cell-based. The protocol:
Accumulation Assay. The accumulation assay was performed in triplicate in batches of ten samples, with each batch containing tetracycline or ciprofloxacin as a positive control. P. aeruginosa PAO1, PAO1 A6, PA14, PA14 A40, and PA1280, and E. coli MG1655 were used in these experiments. For each replicate, 2.5 mL (E. coli) or 5 mL (P. aeruginosa) of an overnight culture was diluted into 250 mL of fresh Luria-Bertani broth (Lennox) or Tryptic Soy Broth (TSB) and grown at 37° C. with shaking to an optical density (OD600) of 0.55-0.60. The bacteria were pelleted at 3220 r.c.f. for 10 min at 4° C., and the supernatant was discarded. The pellets were resuspended in 40 mL of phosphate buffered saline (PBS) and pelleted as before, and the supernatant was discarded. The pellets were resuspended in 8.8 mL of fresh PBS and aliquoted into ten, 1.5 mL Eppendorf tubes (875 μL each). The number of colony-forming units (CFUs) was determined by a calibration curve. The samples were equilibrated at 37° C. with shaking for 5 min; compound was added (final concentration=50 μM), and then the samples were incubated at 37° C. with shaking for either 10 min. These time points were short enough to minimize metabolic and growth changes (no changes in OD600 or CFU count observed). After incubation, 800 μL of the cultures was carefully layered on 700 μL of silicone oil (9:1 AR20/Sigma High Temperature, cooled to −78° C.). Bacteria were pelleted through the oil by centrifuging at 13 000 r.c.f. for 2 min at room temperature (with the supernatant remaining above the oil); the supernatant and oil were then removed by pipetting. To lyse the samples, each pellet was dissolved in […] of water, and then, they were subjected to three (E. coli) or four (P. aeruginosa) freeze-thaw cycles of 3 min in liquid nitrogen followed by 3 min in a water bath at 65° C. P. aeruginosa samples were then treated with 50 µM DNase and RNase and incubated at 37° C. for 15 minutes. The lysates were pelleted at 13 000 r.c.f. for 2 min at room temperature, and the supernatant was collected ([…]). The debris was resuspended in 100 μL of methanol and pelleted as before. The supernatants were removed and combined with the previous supernatants collected. Finally, the remaining debris was removed by centrifuging at 20 000 r.c.f. for 10 min at room temperature. Supernatants were analyzed by LC-MS/MS.
Samples were analyzed with the 5500 QTRAP LC/MS/MS system (AB Sciex) with a 1200 series HPLC system (Agilent Technologies) including a degasser, an autosampler, and a binary pump. Liquid chromatography separation was performed on an Agilent SB-Aq column (4.6×50 mm, 5 μm) (Agilent Technologies) with mobile phase A (0.1% formic acid in water) and mobile phase B (0.1% formic acid in acetonitrile). The flow rate was 0.3 mL/min. The linear gradient was as follows: 0-3 min, 100% mobile phase A; 10-15 min, 2% mobile phase A; 15.5-21 min, 100% mobile phase A. The autosampler was set at 5° C. The injection volume was 15 μL. Mass spectra were acquired with both positive electrospray ionization at the ion spray voltage of 5500 V and negative electrospray ionization at the ion spray voltage of −4500 V. The source temperature was 450° C. The curtain gas, ion source gas 1, and ion source gas 2 were 33, 50, and 65, respectively. Multiple reaction monitoring was used to quantify the metabolites. Power analysis was not used to determine the number of replicates. Error bars represent the standard error of the mean of three biological replicates. The statistical significance of the accumulation was determined using a two sample Welch's t test (one-tailed test, assuming unequal variance) relative to the negative controls. All compounds evaluated in the biological assays were >95% pure.

Assay [2] deals with P. aeruginosa PAO1. Briefly: NPN outer membrane permeability assay. The settings on record: treatment for ten minutes. It is filed as cell-based, Pseudomonas aeruginosa. The source says: Further, the fluorescent probe N-phenylnapthylamine (NPN) was used to assess outer membrane permeability changes upon treatment with FA, gentamicin, and FA prodrug. NPN is membrane impermeable and is only weakly fluorescent in aqueous solutions. Upon entry to the cell and interacting with phospholipids, significant fluorescence is observed. […] This residual membrane depolarizing antibacterial activity can be observed in the FA polyamine (FIG. 4a) and the diacylated compound (Table 9).

Assay [3] relates to P. aeruginosa PAO1. Briefly: DiSC3 (5) inner membrane depolarization assay. The format is cell-based, Pseudomonas aeruginosa.

With `CC(=O)O[C@H]1C[C@@]2(C)[C@@H](C[C@@H](O)[C@H]3[C@@]4(C)CC[C@@H](O)[C@@H](C)[C@@H]4CC[C@@]32C)/C1=C(\CCC=C(C)C)C(=O)O/N=C(\N)CNCCCNCCCNCCCN` [FA prodrug, (3R, 4S,5S,8S,9S,10S,11R,13R,14S,16S,Z)-17-((Z)-1,14-diamino-22-methyl-17-oxo-16-oxa-4,8,12,15-tetraazatricosa-14,21-dien-18-ylidene)-3,11-dihydroxy-4,8,10,14-tetramethylhexadecahydro-1H-cyclopenta[a]phenanthren-16-yl acetate], in the assay on P. aeruginosa PAO1 [1], the MIC against P. aeruginosa PAO1 was found to be 4 µg/mL; the MIC P. aeruginosa PAO1, CAMH was 4 µg/mL; the “shift in MIC on co-treatment with 5 mM MgCl2” value was 32 -fold; the “MIC P. aeruginosa PAO1, 5 mM MgCl2/CAMH” value worked out at 128. Further, in the assay with P. aeruginosa PAO1 [1] (5 mM MgCl2/CAMH versus CAMH (Table 10)), the “Fold change (MIC)” value is listed as 32X. Besides, the “increase in activity relative to FA” value in the assay with P. aeruginosa PAO1 [1] (PAO1 MIC) was 256 -fold. For the same compound, in the assay on P. aeruginosa PAO1 [1] (PAO1), it took 4 µg/mL to inhibit growth (MIC). Also, in the assay on P. aeruginosa PAO1 [1] (PAO1, read-out: MIC P. aeruginosa PAO1), the minimal inhibitory concentration (MIC) (in general, the lowest concentration that inhibits growth of the organism) came out at 4 µg/mL. For the same compound, the minimal inhibitory concentration (MIC) in the assay on P. aeruginosa PAO1 [1] (PAO1, read-out: P. aeruginosa PAO1 MIC) was 4 µg/mL. The “EC Accumulation (FA)” value with E. coli MG1655 came out at 3337 ± 175 nmol/1012 CFUs. In the assay on P. aeruginosa PAO1 [2], the “NPN fluorescence (outer membrane permeability)” value was “dose-dependent increase”. Further, in the assay with P. aeruginosa PAO1 [3], the “inner membrane depolarization (DiSC3 (5) fluorescence)” value is “dose-dependent inner membrane depolarization”.

As for `CC(=O)O[C@H]1C[C@@]2(C)[C@@H](C[C@@H](O)[C@H]3[C@@]4(C)CC[C@@H](O)[C@@H](C)[C@@H]4CC[C@@]32C)/C1=C(\CCC=C(C)C)C(=O)O` [FA, Fusidic acid], the MIC P. aeruginosa PAO1, CAMH against P. aeruginosa PAO1 [1] was determined as 1020 µg/mL (≈ 1980 µM). In the assay on P. aeruginosa PAO1 [1], the “shift in MIC on co-treatment with 5 mM MgCl2” value is recorded as “no change in antibacterial activity”. The minimum inhibitory concentration (MIC) was 1020 µg/mL (≈ 1980 µM) in the assay on P. aeruginosa PAO1 [1] (PAO1, CLSI (Table 8), read-out: P. aeruginosa PAO1 MIC); 1020 µg/mL (≈ 1980 µM) in the assay on P. aeruginosa PAO1 [1] (PAO1, Table 9, read-out: MIC P. aeruginosa PAO1); 1020 µg/mL (≈ 1980 µM) in the assay with P. aeruginosa PAO1 [1] (Reference strain PAO1 (Table 11), read-out: MIC); over 512 µg/mL in the assay on P. aeruginosa PAO1 [1] (WT P. aeruginosa PAO1, MH broth (Table 1), read-out: PAO1 MIC). Also, in the assay on P. aeruginosa PAO1 [1], the “MIC P. aeruginosa PAO1, 5 mM MgCl2/CAMH” value amounted to 1024. For the same compound, the “PAO1 + PMBN MIC” value in the assay with P. aeruginosa PAO1 [1] (co-treatment of 8 μg/mL of PMBN, MH broth) worked out at 4 µg/mL. Further, in the assay on P. aeruginosa PAO1 [1] (text b125, Chart 6), the “MIC versus PAO1” value was 1024 μg/mLh. For the same compound, the “EC Accumulation (FA)” value with E. coli MG1655 is 52 ± 5 nmol/1012 CFUs. In addition, in the assay with P. aeruginosa PAO1 [2], the “NPN fluorescence (outer membrane permeability)” value is reported as “did not lead to any change in fluorescence”. Besides, the “inner membrane depolarization (DiSC3 (5) fluorescence)” value in the assay with P. aeruginosa PAO1 [3] is “did not impact membrane polarization”.
